18 compounds from US20060058366A1, “Jnk inhibitor” (KYOWA HAKKO KOGYO CO., LTD., priority 2002, published 2006) can be followed below.

Bounds are passed on as bounds.

One experiment deals with T1, mouse JNK 3 (Mus musculus, UniProt Q61831).
T1 construct: made in house; host or cells: COS-7 cells (crude extract)
T1 sequence (Q61831 whole entry): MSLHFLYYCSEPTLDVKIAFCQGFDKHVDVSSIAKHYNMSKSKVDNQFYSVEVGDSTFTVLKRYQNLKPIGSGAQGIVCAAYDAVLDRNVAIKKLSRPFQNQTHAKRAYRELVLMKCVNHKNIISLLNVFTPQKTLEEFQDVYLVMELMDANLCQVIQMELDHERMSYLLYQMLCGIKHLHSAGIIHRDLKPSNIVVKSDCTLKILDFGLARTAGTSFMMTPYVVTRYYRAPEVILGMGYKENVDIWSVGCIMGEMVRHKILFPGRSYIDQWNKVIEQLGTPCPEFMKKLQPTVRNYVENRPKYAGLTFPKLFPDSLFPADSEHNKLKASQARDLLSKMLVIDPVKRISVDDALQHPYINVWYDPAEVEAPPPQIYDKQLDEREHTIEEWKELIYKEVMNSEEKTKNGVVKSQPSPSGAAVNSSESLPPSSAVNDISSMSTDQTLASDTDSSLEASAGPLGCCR
The experiment can be described thus: JNK 3 inhibitory activity (33P incorporation into GST-JSAP1 fused protein). The class given is biochemical. The settings on record: crude extract of COS-7 cells expressing mouse JNK 3; 3 μmol/L ATP; GST-JSAP1 substrate; 30° C., 15 minutes; read-out: JNK3 Inhibitory Activity (IC50/μM). As for the experimental part:
A crude extract of COS-7 cells in which mouse JNK 3 was expressed was used as the transcription enzyme solution. Glutathione-S-transferase (GST)-JSAP 1 (JNK/SAPK associated protein 1) fused protein was expressed in E. coli and its crude extract was subjected to an affinity purification using a column of Glutathione Sepharose 4B. An enzyme solution (3 μL), 50 μL of a reaction solution containing a test compound [in the reaction solution, (physiological saline)/(DMSO solution containing the test compound) (ratio by weight) was adjusted to 99/1], 50 μL of a substrate solution (final concentration: 3 μmol/L ATP), 0.75 μCi/ml[γ-^33P]-ATP and 66 μg/mL (1.5 μmol/L) of GST-JSAP1 fused protein reaction solution were incubated at 30° C. for 15 minutes. The reaction was stopped by addition of ethanol whereupon the GST-JSAP1 fused protein was precipitated. The precipitated protein was filtered using a Filter Mate Harvester (Packard Instruments) and adsorbed to a Unifilter Plate GF/B. Incorporation of radiation activity from [γ-^33P1-ATP to the GST-JSAP1 fused protein was measured using TopCount-HTS (Packard Instruments) to calculate enzyme inhibition activity. The enzyme inhibitory activity was calculated by a Probit (L) method using a statistic analysis software SAS (Release 6.12; SAS Institute, Inc.) as the 50% enzyme activity inhibiting concentration (IC50).
On to `CN(C)CCOc1ccc(/C=C/c2n[nH]c3ccccc23)cc1` [Compound 1], for which the IC50 was under 0.5 µM.

Take `C(=C\c1n[nH]c2ccccc12)/c1cccnc1` [Compound 2, (E)-3-[2-(3-Pyridyl)vinyl]-1H-indazole]: the IC50 is under 0.5 µM.

As for `O=C(Cc1c[nH]c2ccccc12)Nc1ccc2[nH]nc(/C=C/c3cccnc3)c2c1` [Compound 6, (E)-5-(3-Indolyl)acetamide-3-[2-(3-pyridyl)vinyl]-1H-indazole], the IC50 is under 0.5 µM.

In the case of `O=C(CCS(=O)(=O)c1ccccc1)Nc1ccc2[nH]nc(/C=C/c3cccnc3)c2c1` [Compound 7, (E)-5-[3-(Phenylsulfonyl)propaneamido]-3-[2-(3-pyridyl)vinyl]-1H-indazole], the IC50 was found to be 1.2 µM.

`O=C(Nc1ccc2[nH]nc(/C=C/c3cccnc3)c2c1)c1cnccn1` [Compound 9, (E)-5-(Pyrazinecarboxamido)-3-[2-(3-pyridyl)vinyl]-1H-indazole]: the IC50 is 0.55 µM.

Regarding `O=C(Nc1ccc2[nH]nc(/C=C/c3cccnc3)c2c1)c1ccncc1` [Compound 11, (E)-5-(4-Pyridinecarboxamido)-3-[2-(3-pyridyl)vinyl]-1H-indazole], the IC50 was under 0.5 µM.

Consider `O=C(O)c1ccc(C(=O)Nc2ccc3[nH]nc(/C=C/c4cccnc4)c3c2)cc1` [Compound 12, (E)-5-(4-Carboxybenzamido)-3-[2-(3-pyridyl)vinyl]-1H-indazole], for which the IC50 was under 0.5 µM.

As to `COC(=O)/C=C/c1ccc2[nH]nc(/C=C/c3cccnc3)c2c1` [Compound 14, (E)-5-(2-Methoxycarbonylvinyl)-(E)-3-[2-(3-pyridyl)vinyl]-1H-indazole], the IC50 was under 0.5 µM.

For the compound `O=C(O)/C=C/c1ccc2[nH]nc(/C=C/c3cccnc3)c2c1` [Compound 15, (E)-5-(2-Carbonxyvinyl)-(E)-3-[2-(3-pyridyl)vinyl]-1H-indazole], the IC50 was under 0.5 µM.

As for `O=C(O)c1ccc(/C=C/c2ccc3[nH]nc(/C=C/c4cccnc4)c3c2)cc1` [Compound 17, (E)-5-[2-(4-Carboxyphenyl)vinyl]-(E)-3-[2-(3-pyridyl)vinyl]-1H-indazole], the IC50 was under 0.5 µM.

In the case of `OCC#Cc1ccc2[nH]nc(/C=C/c3cccnc3)c2c1` [Compound 18, (E)-5-(3-hydroxy-1-propyn-1-yl)-3-[2-(3-pyridyl)vinyl]-1H-indazole], the IC50 is under 0.5 µM.

`O=C(O)c1ccc2[nH]nc(/C=C/c3cccnc3)c2c1` [Compound 19, (E)-3-[2-(3-Pyridyl)vinyl]-1H-indazole-5-carboxylic acid]: the IC50 is under 0.5 µM.

Consider `OCC=Cc1ccc2[nH]nc(/C=C/c3cccnc3)c2c1` [Compound 21, (E)-5-(3-Hydroxy-1-propen-1-yl)-3-[2-(3-pyridyl)vinyl]-1H-indazole], for which the IC50 was under 0.5 µM.

For the compound `O=C(O)c1ccc(C(=O)Nc2ccc3[nH]nc(/C=C/c4cnccc4NC(=O)c4ccccc4)c3c2)cc1` [Compound 24, (E)-3-[2-(4-Benzamidopyridin-3-yl)vinyl]-5-(4-carboxybenzamido)-1H-indazole], the IC50 is under 0.5 µM.

`O=C(Nc1ccccc1/C=C/c1n[nH]c2ccc(/C=C/CO)cc12)c1ccccc1` [Compound 25, (E)-3-[2-(2-Benzoylaminophenyl)vinyl]-(E)-5-(3-hydroxy-1-propen-1-yl)-1H-indazole]: the IC50 was under 0.5 µM.

As to `O=C(Nc1ccccc1/C=C/c1n[nH]c2ccc(C#CCO)cc12)c1ccccc1` [Compound 26, (E)-3-[2-(2-Benezoylaminophenyl)vinyl]-5-(3-hydroxy-1-propyn-1-yl)-1H-indazole], the IC50 was under 0.5 µM.

In the case of “(E)-3-[2-(Benzamidopyridin-3-yl)vinyl]-(E)-5-(2-carboxyvinyl)-1H-indazole [Compound 23]”, the IC50 was under 0.5 µM.

The test system of a further experiment is PC12 cells. The experiment can be described thus: Apoptosis suppressive activity by removal of NGF in NGF-differentiated PC12 cells (MTT). The class given is cell-based. The settings on record: 3 μmol/L test compound; 24 hours without NGF; cells with NGF not removed = 100%, NGF removed = 0%. As for the experimental part:
PC12 cells prepared in 6.0×10^4/mL by Roswell Park Memorial Institute's Medium (RPMI) 1640 medium containing 10% of horse serum, 5% of bovine fetal serum and penicillin/streptomycin were disposed in a 24-well multidish (NulgeNunc International; No. 143982) coated with polyethyleneimine in an amount of 0.5 mL for each well. After the cells were adhered to the dish, the medium was removed, an RPMI 1640 medium containing […] of 1% horse serum, penicillin/streptomycin and 50 ng/mL of mouse nerve growth factor (NGF) was added and the cells were incubated in a carbon dioxide gas incubator at 37° C. for 9 to 12 days, causing the cells to differentiate into a nerve cell form. A dilution series of DMSO solution of the test compound was prepared, and diluted with a medium containing 1% horse serum and penicillin/streptomycin and containing no NGF (final DMSO concentration: 0.1%). The medium was removed, washing was conducted twice using a medium containing 0.5 mL of the test compound, 1% horse serum, and penicillin/streptomycin, and containing no NGF, 0.5 mL of the above-medium was added once again to each well and then incubation was conducted in a carbon dioxide gas incubator at 37° C. for 24 hours. The medium was removed, 0.2 mL of a medium containing 1% horse serum, penicillin/streptomycin, NGF and 1 mg/mL 3-(4,5-dimethyl-2-thiazolyl)-2,5-diphenyl-2H-tetrazolium bromide (MTT) containing no test compound, was added to each well and incubation was conducted in a carbon dioxide gas incubator at 37° C. for 4 hours. DMSO (0.6 mL) was added to each well and 0.2 mL thereof was transferred to a 96-well multititer plate (Nulge Nunc International; No. 167008) and absorbances at 590 nm and 630 nm were measured using a microplate reader EL 3401 (Bio-Tek). The absorbance differential was calculated by subtracting the […] for each well. The apoptosis suppressive activity (%) of test compound were calculated by comparing the absorbance differential obtained from cells treated with test compound of known concentration with the value in the cells from which no NGF was removed and the value in the cells from which NGF was removed. Here, the value in the cells from which no NGF was removed was set at 100% while the value in the cells from which NGF was removed was set at 0%.
For `CN(C)CCOc1ccc(/C=C/c2n[nH]c3ccccc23)cc1` [Compound 1], the “Apoptosis Suppressive Activity in 3 μmol/L of Test Compound (%)” value (from here on “Apoptosis Suppressive Activity … (%)”) came to 63%.

As for `C(=C\c1n[nH]c2ccccc12)/c1cccnc1` [Compound 2, (E)-3-[2-(3-Pyridyl)vinyl]-1H-indazole], the “Apoptosis Suppressive Activity … (%)” value worked out at 44%.

With `O=C(Nc1ccc2[nH]nc(/C=C/c3cccnc3)c2c1)c1ccccc1` [Compound 4, (E)-5-Benzamido-3-[2-(3-pyridyl)vinyl]-1H-indazole], the “Apoptosis Suppressive Activity … (%)” value turned out to be 64%.

On to `COC(=O)/C=C/c1ccc2[nH]nc(/C=C/c3cccnc3)c2c1` [Compound 14, (E)-5-(2-Methoxycarbonylvinyl)-(E)-3-[2-(3-pyridyl)vinyl]-1H-indazole], for which the “Apoptosis Suppressive Activity … (%)” value was found to be 62%.
